Results reported in patent US11723908B2, “Quinazoline derivatives as antitumor agents” (SUZHOU ZANRONG PHARMA LIMITED, priority 2018, dated 2023).
Where two headings read alike, the source gives them in different places.

Key:
HER2 = HER2 (Homo sapiens (Human), UniProt P04626); assay: BT474 cellular assay (HER2 inhibition), phospho-HER2 ELISA; assay type: cell-based; conditions: inhibition of phosphor HER2, BT474 cells, 2 hours compound incubation
Experimental: Assay a) BT474 Cellular Assay (HER2 Inhibition) Inhibition of phosphor HER2 was determined by enzyme-linked immunosorbent assay (ELISA) in BT474 cells. BT474 cell line was purchased from [NT] number HTB-20). Human Phospho-ErbB2 ELISA kit was purchased from R&D systems (catalog number DYC1768). Day 1: When the cells reach 70-90% confluence, cells were trypsinized and re-suspended. 5000 cells per well were seeded to a 384-well plate. The plate was incubated at 37° C. with 5% CO2 for 24 hours. ELISA plate was coated with 2 μg/ml capture antibody, which was incubated at 4° C. overnight. Day 2: 25 nl compounds was dosed by Echo from source plate and the 384-well plate was incubated at 37° C. for 2 hours. 30 μl lysis buffer was added to each well and the 384-well plate was shaken softly at 4° C. for 30 minutes. The ELISA plate was washed, blocked and incubated at room temperature for 1-2 hours. The blocked ELISA plate was washed and 20 μl cell lysate was transferred from the 384-well plate to the ELISA plate, which was incubated overnight at 4° C. Day 3: The ELISA plate was washed 3 times. 25 μl/well detection antibody was added (diluted 1 by 2000 in 1% BSA in PBS). After 2 hours of incubation with detection antibody, the ELISA plate was washed 3 times, 25 μl/well TMB substrate was added and incubated for 10-15 minutes before stop solution was added. Absorbance at 450 nm and 570 nm was read within 30 minutes after adding the stop solution. […] The IC50 results are provided in Table 1 for some exemplary compounds.

wt-EGFR = wt-EGFR (Homo sapiens (Human), UniProt P00533); assay: NCI H838 cellular assay (wt-EGFR inhibition), phospho-EGFR ELISA; assay type: cell-based
Chain of wt-EGFR (P00533 25-1210): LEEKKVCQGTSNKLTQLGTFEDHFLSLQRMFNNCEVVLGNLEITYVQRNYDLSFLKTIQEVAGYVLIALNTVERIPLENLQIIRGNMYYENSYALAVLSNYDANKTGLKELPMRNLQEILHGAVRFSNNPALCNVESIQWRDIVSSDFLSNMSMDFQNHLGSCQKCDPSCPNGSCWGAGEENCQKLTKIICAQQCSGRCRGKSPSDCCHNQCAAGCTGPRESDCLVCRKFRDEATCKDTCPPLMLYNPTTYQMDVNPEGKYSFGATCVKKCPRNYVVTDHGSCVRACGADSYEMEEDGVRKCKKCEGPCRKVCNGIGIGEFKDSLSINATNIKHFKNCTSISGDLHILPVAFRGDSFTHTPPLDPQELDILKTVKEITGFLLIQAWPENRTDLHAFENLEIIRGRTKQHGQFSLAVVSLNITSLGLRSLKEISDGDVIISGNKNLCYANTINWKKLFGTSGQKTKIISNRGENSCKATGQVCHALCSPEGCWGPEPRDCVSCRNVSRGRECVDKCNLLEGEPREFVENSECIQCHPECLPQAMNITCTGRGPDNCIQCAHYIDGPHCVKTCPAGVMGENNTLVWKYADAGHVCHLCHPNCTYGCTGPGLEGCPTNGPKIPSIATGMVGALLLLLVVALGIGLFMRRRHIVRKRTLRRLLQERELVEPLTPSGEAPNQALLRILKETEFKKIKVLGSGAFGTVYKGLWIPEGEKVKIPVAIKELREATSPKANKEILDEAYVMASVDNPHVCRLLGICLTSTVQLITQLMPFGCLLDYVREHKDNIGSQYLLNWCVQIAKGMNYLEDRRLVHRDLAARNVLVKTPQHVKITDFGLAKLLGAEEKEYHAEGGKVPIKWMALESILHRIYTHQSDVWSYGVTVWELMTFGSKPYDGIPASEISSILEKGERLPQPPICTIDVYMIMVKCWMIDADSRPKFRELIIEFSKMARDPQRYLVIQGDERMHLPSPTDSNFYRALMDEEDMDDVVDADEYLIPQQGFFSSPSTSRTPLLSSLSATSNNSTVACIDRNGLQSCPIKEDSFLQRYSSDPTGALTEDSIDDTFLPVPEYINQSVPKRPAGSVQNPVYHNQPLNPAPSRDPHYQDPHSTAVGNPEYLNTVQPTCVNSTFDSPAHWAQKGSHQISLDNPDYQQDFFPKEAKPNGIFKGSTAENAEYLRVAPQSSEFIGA
Experimental: Assay b) NCI H838 Cellular Assay (Wt-EGFR Inhibition) Inhibition of phosphor wt-EGFR was determined by enzyme-linked immunosorbent assay (ELISA) in NCI H838 cells (ATCC, catalog number CRL-5844). Human Phospho-EGFR DuoSet IC ELISA kit was purchased from R&D systems (catalog number DYC1095). Day 1: When the cells reach 70-90% confluence, cells were trypsinized and re-suspended. 5000 cells per well were seeded to a 384-well plate. The plate was incubated at 37° C. with 5% CO2 for 24 hours. Day 2: Cell culture medium was replaced with 40 μL FBS-Free RPMI1640. After 2 hours of starvation, the 384-well plate was dosed with 40 nL of compounds by Echo from source plate and the 384-well plate was incubated at 37° C. with 5% CO2 for 2 hours. After 2 hours of incubation with compounds, EGF (final concentration at 100 ng/ml) was added to the plate which was incubated at 37° C. with 5% CO2 for 5-10 minutes. Medium was discarded from the plate and 30 μl/well lysis buffer was added to the plate which was incubated at 4° C. for 10 minutes. The cell lysates can be stored at −80° C. in cell plates but must be thawed at room temperature for at least 30 minutes prior to use and continuing the assay. ELISA plate was coated by diluting capture antibody to 4 μg/ml with PBS, and 25 μl/well was dispensed to 384 well UltraCruz® ELISA Plate, which was incubated at 4° C. overnight. Day 3: After the plates were washed three times with 100 μl/well of wash buffer, the plates were blocked by adding 75 μl of Block Buffer to each well and incubated at room temperature for 3 hours. After the plates were washed three times with 100 μl/well of wash buffer, 20 μl cell lysate was transferred to the blocked ELISA plate which was incubated for 2 hours at room temperature. After the plates were washed three times with 100 μl/well of wash buffer, 25 μl/well detection antibody (dilute 1 in 900 in assay buffer) was added the plate which was incubated for 2 hours, protected from light. After washed three times, 25 μl/well TMB substrate was added to the ELISA plate which was incubated for about 10-15 min, protected from light before addition of 25 μl/well stop solution. Absorbance was read at 450 nm and 570 nm within 30 minutes.

[1] = inhibition of phosphor wt-EGFR, NCI H838 cells, EGF 100 ng/ml

Chain of HER2 (P04626 23-1255): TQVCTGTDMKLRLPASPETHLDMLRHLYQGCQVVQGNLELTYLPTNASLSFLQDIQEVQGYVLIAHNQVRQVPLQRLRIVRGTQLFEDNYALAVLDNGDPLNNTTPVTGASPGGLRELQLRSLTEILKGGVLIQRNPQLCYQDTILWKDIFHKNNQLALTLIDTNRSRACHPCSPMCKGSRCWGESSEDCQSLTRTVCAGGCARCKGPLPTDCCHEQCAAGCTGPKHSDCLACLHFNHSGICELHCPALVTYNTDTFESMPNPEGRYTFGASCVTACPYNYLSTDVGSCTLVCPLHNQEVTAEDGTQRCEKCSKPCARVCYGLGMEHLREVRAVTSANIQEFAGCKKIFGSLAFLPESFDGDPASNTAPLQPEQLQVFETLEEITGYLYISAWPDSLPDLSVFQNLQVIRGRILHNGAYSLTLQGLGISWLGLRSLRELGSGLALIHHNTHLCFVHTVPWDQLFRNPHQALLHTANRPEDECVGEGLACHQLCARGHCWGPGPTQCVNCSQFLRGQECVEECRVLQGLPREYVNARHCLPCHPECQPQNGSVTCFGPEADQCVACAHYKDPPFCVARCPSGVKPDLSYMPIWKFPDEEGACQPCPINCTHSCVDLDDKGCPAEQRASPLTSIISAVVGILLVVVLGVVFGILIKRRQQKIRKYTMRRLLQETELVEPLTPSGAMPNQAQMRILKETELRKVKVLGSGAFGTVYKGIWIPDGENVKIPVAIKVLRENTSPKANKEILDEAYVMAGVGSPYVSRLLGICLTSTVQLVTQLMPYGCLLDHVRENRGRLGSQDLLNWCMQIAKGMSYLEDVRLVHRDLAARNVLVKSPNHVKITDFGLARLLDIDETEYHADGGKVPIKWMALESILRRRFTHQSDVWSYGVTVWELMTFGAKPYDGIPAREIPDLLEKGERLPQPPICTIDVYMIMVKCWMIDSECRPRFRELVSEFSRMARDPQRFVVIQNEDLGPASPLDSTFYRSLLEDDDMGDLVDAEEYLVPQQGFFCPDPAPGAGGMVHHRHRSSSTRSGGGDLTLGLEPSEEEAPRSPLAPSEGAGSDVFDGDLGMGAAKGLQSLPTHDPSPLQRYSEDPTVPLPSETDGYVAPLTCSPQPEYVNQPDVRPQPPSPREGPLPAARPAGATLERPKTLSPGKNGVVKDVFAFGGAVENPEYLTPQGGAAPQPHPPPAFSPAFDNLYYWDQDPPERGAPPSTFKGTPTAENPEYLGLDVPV

IC50 (HER2)	IC50 (wt-EGFR; [1])	IC50 (wt-EGFR)	SMILES
7.3 nM	215 nM	–	COc1ccc2ncnc(Nc3ccc(Oc4cc5ncnn5cn4)c(C)c3)c2c1N1C[C@@H]2[C@H]1CCN2C [Example 46, N-(4-([1,2,4]triazolo[1,5-c]pyrimidin-7-yloxy)-3-methylphenyl)-6-methoxy-5-((1R,5R)-2-methyl-2,6-diazabicyclo[3.2.0]heptan-6-yl)quinazolin-4-amine]
176 nM	183 nM	–	COc1cc(O[C@H]2CCN(C)CC2(F)F)c2c(Nc3ccc(Oc4cc5ncnn5cn4)c(C)c3)ncnc2c1 [Example 51, (S)—N-(4-([1,2,4]triazolo[1,5-c]pyrimidin-7-yloxy)-3-methylphenyl)-5-((3,3-difluoro-1-methylpiperidin-4-yl)oxy)-7-methoxyquinazolin-4-amine]
182 nM	800 nM	–	COc1cc(O[C@@H]2CCN(C)CC2(F)F)c2c(Nc3ccc(Oc4cc5ncnn5cn4)c(C)c3)ncnc2c1 [Example 52, (R)—N-(4-([1,2,4]triazolo[1,5-c]pyrimidin-7-yloxy)-3-methylphenyl)-5-((3,3-difluoro-1-methylpiperidin-4-yl)oxy)-7-methoxyquinazolin-4-amine]
190 nM	> 10000 nM	–	Cc1cc(Nc2ncnc3ccc(NC4=NC(C)(C)CO4)c(N4CC(N(C)C)C4)c23)ccc1Oc1cc2ncnn2cn1 [Example 54, N4-(4-([1,2,4]triazolo[1,5-c]pyrimidin-7-yloxy)-3-methylphenyl)-N6-(4,4-dimethyl-4,5-dihydrooxazol-2-yl)-5-(3-(dimethylamino)azetidin-1-yl)quinazoline-4,6-diamine]
912 nM	> 10000 nM	–	Cc1cc(Nc2ncnc3cccc(N4CC5(CN(C)CCO5)C4)c23)ccc1Oc1cc2ncnn2cn1 [Example 55, N-(4-([1,2,4]triazolo[1,5-c]pyrimidin-7-yloxy)-3-methylphenyl)-5-(8-methyl-5-oxa-2,8-diazaspiro[3.5]nonan-2-yl)quinazolin-4-amine]

The next lines start with the compound.

SMILES	IC50 (HER2)	IC50 (wt-EGFR; [1])	IC50 (wt-EGFR)
CCOc1ccc2ncnc(Nc3ccc(Oc4cc5ncnn5cn4)c(C)c3)c2c1N1CC(N(C)C)C1 [Example 11, N-(4-([1,2,4]triazolo[1,5-c]pyrimidin-7-yloxy)-3-methylphenyl)-5-(3-(dimethylamino)azetidin-1-yl)-6-ethoxyquinazolin-4-amine]	13 nM	6700 nM	–
Cc1cc(Nc2ncnc3ccc(OCCF)c(N4CC(N(C)C)C4)c23)ccc1Oc1cc2ncnn2cn1 [Example 12, N-(4-([1,2,4]triazolo[1,5-c]pyrimidin-7-yloxy)-3-methylphenyl)-5-(3-(dimethylamino)azetidin-1-yl)-6-(2-fluoroethoxy)quinazolin-4-amine]	26 nM	180 nM	–
COc1ccc2ncnc(Nc3ccc(Oc4cc5ncnn5cn4)c(C)c3)c2c1O[C@H]1CCN(C)CC1(F)F [Example 32, (S)—N-(4-([1,2,4]triazolo[1,5-c]pyrimidin-7-yloxy)-3-methylphenyl)-5-((3,3-difluoro-1-methylpiperidin-4-yl)oxy)-6-methoxyquinazolin-4-amine]	16 nM	–	4800 nM
COc1ccc2ncnc(Nc3ccc(Oc4cc5ncnn5cn4)c(Cl)c3)c2c1O[C@H]1CCN(C)CC1(F)F [Example 34, (S)—N-(4-([1,2,4]triazolo[1,5-c]pyrimidin-7-yloxy)-3-chlorophenyl)-5-((3,3-difluoro-1-methylpiperidin-4-yl)oxy)-6-methoxyquinazolin-4-amine]	18 nM	6300 nM	–
[2H]C([2H])([2H])N1CCC(Oc2c(OC)ccc3ncnc(Nc4ccc(Oc5cc6ncnn6cn5)c(C)c4)c23)C(F)(F)C1 (stereo not shown) [Example 35, N-(4-([1,2,4]triazolo[1,5-c]pyrimidin-7-yloxy)-3-methylphenyl)-5-((3,3-difluoro-1-(methyl-d3)piperidin-4-yl)oxy)-6-methoxyquinazolin-4-amine]	16 nM	–	1280 nM
[2H]C([2H])([2H])Oc1ccc2ncnc(Nc3ccc(Oc4cc5ncnn5cn4)c(C)c3)c2c1O[C@H]1CCN(C)CC1(F)F [Example 37, (S)—N-(4-([1,2,4]triazolo[1,5-c]pyrimidin-7-yloxy)-3-methylphenyl)-5-((3,3-difluoro-1-methylpiperidin-4-yl)oxy)-6-(methoxy-d3)quinazolin-4-amine]	12 nM	–	> 10000 nM
COc1ccc2ncnc(Nc3ccc(Oc4cc5ncnn5cn4)c(C)c3)c2c1N1CC2(CN(C)CCO2)C1 [Example 38, N-(4-([1,2,4]triazolo[1,5-c]pyrimidin-7-yloxy)-3-methylphenyl)-6-methoxy-5-(8-methyl-5-oxa-2,8-diazaspiro[3.5]nonan-2-yl)quinazolin-4-amine]	37 nM	> 10000 nM	–
COc1ccc2ncnc(Nc3ccc(Oc4cc5ncnn5cn4)c(C)c3)c2c1N1C[C@@H](N(C)C)[C@@H](F)C1 [Example 39, N-(4-([1,2,4]triazolo[1,5-c]pyrimidin-7-yloxy)-3-methylphenyl)-5-((3R,4S)-3-(dimethylamino)-4-fluoropyrrolidin-1-yl)-6-methoxyquinazolin-4-amine]	94 nM	> 10000 nM	–
COc1ccc2ncnc(Nc3ccc(Oc4cc5ncnn5cn4)c(C)c3)c2c1N1C[C@@H](F)[C@H](N(C)C)C1 [Example 40, N-(4-([1,2,4]triazolo[1,5-c]pyrimidin-7-yloxy)-3-methylphenyl)-5-((3R,4R)-3-(dimethylamino)-4-fluoropyrrolidin-1-yl)-6-methoxyquinazolin-4-amine]	63 nM	> 10000 nM	–
COc1ccc2ncnc(Nc3ccc(Oc4cc5ncnn5cn4)c(C)c3)c2c1N1CC2(COCCN2C)C1 [Example 41, N-(4-([1,2,4]triazolo[1,5-c]pyrimidin-7-yloxy)-3-methylphenyl)-6-methoxy-5-(5-methyl-8-oxa-2,5-diazaspiro[3.5]nonan-2-yl)quinazolin-4-amine]	35 nM	2260 nM	–
COc1ccc2ncnc(Nc3ccc(Oc4cc5ncnn5cn4)c(C)c3)c2c1N1CC2OCCN(C)C2C1 (stereo not shown) [Example 42, N-(4-([1,2,4]triazolo[1,5-c]pyrimidin-7-yloxy)-3-methylphenyl)-6-methoxy-5-(4-methylhexahydropyrrolo[3,4-b][1,4]oxazin-6(2H)-yl)quinazolin-4-amine]	58 nM	> 10000 nM	–
COc1ccc2ncnc(Nc3ccc(Oc4cc5ncnn5cn4)c(C)c3)c2c1N1C[C@H]2[C@@H]1CCN2C [Example 45, N-(4-([1,2,4]triazolo[1,5-c]pyrimidin-7-yloxy)-3-methylphenyl)-6-methoxy-5-((1S,5S)-2-methyl-2,6-diazabicyclo[3.2.0]heptan-6-yl)quinazolin-4-amine]	2.5 nM	6600 nM	–
